Test results as given in patent US20060094741A1, “Remedies for neuropathic pain and model animals of neuropathic pain” (Toray Industries, Inc., a corporation of Japan, priority 1999, published 2006).
“Also recorded” adds a separate entry of the source.

Legend:
[1] = tested on: pain-related behavior induced by intrathecal administration of Compound 1; assay: Inhibition of tentative responses for nociception (scratching, biting, licking) induced by intrathecal Compound 1; assay type: in vivo, mouse
Experimental: (§1) Scratching, biting, and licking behavior was regarded as an index of tentative responses for nociception, and the duration of such behavior was measured for 5 minutes from 5 minutes after the administration of Compound 1 in a transparent acrylic cage (20×13×10 cm) in a single-blind manner.
(§2) Mice (ddY; weighing 22 to 25 g when the experiment was started) were kept in a plastic cage at a constant temperature and humidity (22±1° C., 55±5%) under a 12-hour light-dark cycle. The mice had free access to food and water.
(§3) Compound 1 was dissolved in a physiological saline solution (Ohtsuka Pharmaceutical Co., Ltd.) and was intrathecally administered to the mice without anesthetization. The intrathecal dose of the drug solution per mouse was 4 μl, and a 30 gauge needle and a 25 μl Hamilton syringe were used according to the method disclosed by Hylden and Wilcox (J. L. K. Hylden & G. L. Wilcox, Eur. J. Pharmacol., 67: 313-316, 1980).
(−)-17cyclopropyl-3,1 4β-dihydroxy-4,5α-epoxy-6β-[N-methyl-trans-3-(3-furyl) acrylamide] morphinan hydrochloride (Compound 2) (H. Nagase et al. Chem. Pharm. Bull. 46, 366, 1998), of which the formula is shown below, [drawing 14] as a selective opioid κ-receptor agonist compound, was intrathecally administered to the mice simultaneously with Compound 1, and the effect thereof on neuropathic pain was evaluated based on tentative responses for nociception, such as scratching, biting, and licking behavior, as indexes. The duration of such behavior was measured for 5 minutes from 5 minutes after the administration of the simultaneous administration of Compound 2 and Compound 1 (15 μg/mouse) in a transparent acrylic cage (20×13×10 cm) in a single-blind manner. Additionally, Compound 2 was dissolved in a physiological saline solution for use.
In order to determine the effect of the drug on neuropathic pain, tentative responses for nociception were tested in the case in which a low dose of 1 or 3 nmol/mouse of Compound 2 was intrathecally administered simultaneously with Compound 1 in a manner similar to that of Example 2 and in the case in which Compound 2 was subcutaneously administered so that systemic exposure to the drug was evaluated. […] Since the effectiveness of Compound 2 has also been shown in systemic exposure, it has become clear that Compound 2 is effective even if the drug is not administered topically, that is, even if the drug is administered in various dosage forms which are pharmacologically acceptable.

[2] = tested on: mice (ddY); assay: Production of the neuropathic pain animal model: scratching, biting and licking behavior after intrathecal Compound 1; assay type: in vivo; details: 7.5 μg/mouse or more, measured for 5 minutes from 5 minutes after administration
Experimental: as §2
as §3, with “(+)-4a-(3-hydroxyphenyl)-2-methyl-1,2,3,4,4a, 5,12,12a-octahydrotrans-quinolino [2,3-g]isoquinoline (Compound 1)” for “Compound 1”
as §1

[3] = tested on: pain associated with zosteriform skin lesions; assay: Herpetic pain model, allodynia/hyperalgesia associated with zosteriform skin lesions; assay type: in vivo; details: orally administered; thirty minutes after the administration
From the text: The therapeutic effect of Compound 2 on pain associated with zoster classified under neuropathic pain was investigated. The evaluation of the therapeutic effect was made using an animal model produced according to a method disclosed in Pain, 86, 95-101, 2000.

[4] = tested on: sciatic nerve ligation mouse model; assay: Sciatic nerve ligation mouse model, allodynia/hyperalgesia by von Frey hairs; assay type: in vivo; details: subcutaneous
From the text: The action of Compound 2 in inhibiting neuropathic pain was investigated using another, widely known neuropathic pain model. That is, the action of Compound 2 in a sciatic nerve ligation mouse model was investigated using a method in which the method disclosed by A. B. Malmberg and A. I. Basbaum (Pain, 76, 215-222, 1998) et al. was slightly modified. In order to measure allodynia or hyperalgesia generally observed in neuropathic pain, two von Frey hairs (0.17 and 1.48 g) having different strengths were used. Four weeks following the surgery, the mice were placed in an acrylic cage (90×100×300 mm) and allowed to acclimate for a minimum of 30 minutes. The von Frey hairs were applied perpendicularly to the soles of the hind feet so as to cause slight bending for a duration of approximately 3 seconds. This was repeated 6 times at intervals of several seconds. The reaction of the mouse was given a score in the manner described below.
2: Immediate escape reaction and flinching of hind paw
The reactions of the surgically operated foot and the opposite foot as control were measured before the administration of the drug, and 30 minutes and 2 hours after the administration of the drug. The difference between the score of the surgically operated foot and the score of the control foot was evaluated as allodynia or hyperalgesia. […]

[5] = simultaneous intrathecal administration with 15 μg/mouse of Compound 1

NCC(CC(=O)O)c1ccc(Cl)cc1 (stereo not shown) [Baclofen, reference compound]
inhibition of tentative responses for nociception induced by Compound 1 [1, 5]: inhibited dose-dependently

CN1CC[C@@]2(c3cccc(O)c3)Cc3nc4ccccc4cc3C[C@@H]2C1 [Compound 1, (+)-4a-(3-hydroxyphenyl)-2-methyl-1,2,3,4,4a, 5,12,12a-octahydrotrans-quinolino [2,3-g]isoquinoline]
tentative responses for nociception (duration of scratching, biting, and licking behavior) [2]: increased significantly and dose-dependently
tentative responses for nociception (duration of scratching, biting, and licking behavior) ([2]; listed as Compound I): increases dose-dependently

CN(C(=O)/C=C/c1ccoc1)[C@@H]1CC[C@@]2(O)[C@H]3Cc4ccc(O)c5c4[C@@]2(CCN3CC2CC2)[C@H]1O5.Cl [Compound 2, (−)-17cyclopropyl-3,1 4β-dihydroxy-4,5α-epoxy-6β-[N-methyl-trans-3-(3-furyl)acrylamide] morphinan hydrochloride]
allodynia or hyperalgesia associated with zosteriform skin lesions [3]: dose-dependently inhibited allodynia or hyperalgesia
inhibition of tentative responses for nociception induced by Compound 1 ([1]; 10 nmol/mouse intrathecal, simultaneously with Compound 1 (15 μg/mouse), compared to physiological saline solution-treated group): significantly inhibited
inhibition of tentative responses for nociception induced by Compound 1 ([1]; low dose of 1 or 3 nmol/mouse intrathecal, simultaneously with Compound 1, hydrochloride): dose-dependent inhibitory action; also recorded: dose-dependently inhibited
inhibition of tentative responses for nociception induced by Compound 1 ([1]; subcutaneously administered (systemic exposure), hydrochloride): dose-dependent inhibitory action; also recorded: dose-dependently inhibited
allodynia or hyperalgesia (difference between score of surgically operated foot and control foot) ([4]; after 2 hours): the effect of the drug disappeared
allodynia or hyperalgesia (difference between score of surgically operated foot and control foot) ([4]; thirty minutes after the administration, von Frey hairs 0.17 and 1.48 g): inhibited allodynia or hyperalgesia

CN1CC[C@]23c4c5ccc(O)c4O[C@H]2[C@@H](O)C=C[C@H]3[C@H]1C5 [morphine, reference compound]
inhibition of tentative responses for nociception induced by Compound 1 [1, 5]: not inhibited at all
